Source: publication PMC6891695, “Evaluation of Antifouling Potential and Ecotoxicity of Secondary Metabolites Derived from Red Algae of the Genus Laurencia” (Marine Drugs, 2019)
Read-outs that look alike come from different tables or passages of the source.

How the values were obtained:
[1] = tested on: A. salina nauplii; assay: Artemia salina toxicity assay; type: in vivo; details: in vivo
Procedure: (§1) The short-term toxicity assay with A. salina nauplii was used to determine the toxicity of secondary metabolites. Hatching of A. salina nauplii was carried out in ASW (35‰) using 0.5 g of cysts incubated in 500 mL seawater at a temperature of 25 ± 1 °C and lateral illumination (1000 Lux). All cysts were kept in continuous suspension with aeration and 24 h later hatched larvae (instar I) were harvested. Toxicity assays were carried out in three independent experiments in 24-well plates with four replicates of each tested concentration. Ten nauplii per well were transferred with a Pasteur pipette into the 24-well plates and each well was filled with 2 mL of ASW and 50 μL of various concentrations of the tested compounds in methanol. Control treatments received 50 μL of methanol. Plates were incubated in the dark at 25 ± 1 °C for 48 h. Mortality was assessed by recording the number of individuals with no movement of their appendages within 10 seconds and is expressed as the percentage of the total number of assessed individuals for each concentration.
(§2) For EC50 or IC50 (the concentration that results in 50% stimulation or inhibition relative to the control) calculations in GraphPad Prism v.6, all data were fitted to the curve according to the following models for normalized response: Y = 100/(1 + 10^((X − LogIC50))) or Y = 100/(1 + 10^((LogEC50 − X))) depending on the trend of the curve.

[2] = Artemia salina toxicity assay; type: in vivo; details: Artemia salina, in vivo, read-out: EC50 Artemia salina toxicity (mortality)
Procedure: as §1, §2

[3] = tested on: cyprids of A. amphitrite; assay: whole plant or invertebrate; type: in vivo; details: for EC50 / IC50: Amphibalanus amphitrite; for EC50: read-out: EC50 No Metamorphosis; for IC50: read-out: IC50 Settlement; for EC50 values for settlement inhibition of barnacle cyprids (in words): consistently, 24-72 h
Procedure: (§3) Adult A. amphitrite (Cirripedia, Balanidae) were collected from boat docks at Port Mikrolimano and Floisvos, Athens, Greece. Animals were cleaned of epibionts with a small hard brush and meticulously identified as individuals of the species. Adult barnacles were kept in separate aerated glass tanks (20 L) containing 200-μm filtered natural seawater at 27 °C and a 12:12 L:D photoperiod. Tanks were fed with 24-h hatched Artemia sp. (Branchiopoda) nauplii and Tetraselmis suecica (Chlorodendrophyceae) and Skeletonema costatum (Bacillariophyceae) algae each day and seawater was changed on alternate days. Upon stress to induce oviposition (exposure to air for 24 h or immersion in fresh water for 5 h), adults were returned to seawater for larval release. Hatched nauplii were attracted to a point light source, collected and placed into a beaker containing 2 or 3 L of 0.7 μm GF/F (GE Healthcare, Little Chalfont, UK )-filtered natural seawater at a density of approximately 1–2 nauplii/mL with gentle aeration. Nauplii were maintained at 27 °C at a 12:12 L:D photoperiod on a diet of C. gracilis (Bacillariophyceae) provided at a density of 2 × 10^5 cells/mL. Cultured in these conditions, nauplii metamorphosed to cyprids in 5 days. Aliquots of these cyprids were collected with a wide-mouthed Pasteur pipette and aged at 4 °C for 1 day prior to use in settlement assays. Only batches of cyprids that were active and had numerous oil cells, representing energy reserves, were used in settlement assays.
(§4) Assays were conducted by adding 10 cyprids into individual wells of a 24-well polystyrene sterile microplate (Orange Scientific, Braine l’Alleud, Belgium) with 2 mL of artificial sea water (ASW) (25‰) and various concentrations of the chemical compounds as listed in Table 1. These experiments were repeated at least three times with four replicates for each concentration of any given compound (n = 120 cyprids/compound). Stock solutions for all compounds were prepared in methanol (Scharlab, Barcelona, Spain) and serial dilutions were prepared in 0.7 μm (GF/F, GE Healthcare, Little Chalfont, UK), filtered sea water to have a final concentration of 2.5% methanol in each assay solution. Plates were covered and sealed with Parafilm® to avoid evaporation and incubated at 25 °C away from any light source and examined after 24, 48 and 72 h. Each animal was inspected under a stereomicroscope and its condition was recorded. […] Both permanently attached and metamorphosed individuals were counted as settled or juveniles. The remainder were counted as ‘no metamorphosis’, i.e. animals that responded to light touch and were still cyprids at the end of the experiments with no overt signs of metamorphosis.
as §2

[4] = in vivo; type: in vivo; details: Amphibalanus amphitrite, in vivo, read-out: LC50 Mortality; for LC50 at 24 h: 24 h exposure; for LC50 at 48 h: 48 h exposure; for LC50 at 72 h: 72 h exposure
Procedure: as §3, §4, §2

[5] = tested on: Chaetoceros gracilis; assay: Chaetoceros gracilis toxicity (phytoplankton growth) assay; type: cell-based; details: 96 h
Procedure: For phytoplankton growth toxicity assays, the criterion for assay validity was that the cell count of the negative control after 96 h should be ≥2 × 10^5 cells/mL [40].
The centric marine diatom C. gracilis Schütt (strain CCMP1315) was grown photoautotrophically in autoclaved artificial seawater (sea salts; Sigma-Aldrich, St. Louis, MO, USA) (30‰) supplemented with F/2 (half-strength medium f as subsequently modified) in 100 mL medium at 20 °C and with ambient air bubbled in the media. By monitoring cell density, an adjusted culture of >1 × 10^6 cells/mL was used for the toxicity assays. At 96 h, a 0.9 mL aliquot of each treatment was sampled, mixed with 0.1 mL Lugol and cell density was counted. Experiments were assumed valid if cell count in the control after 96 h was […].
as §2

[6] = tested on: five strains of marine bacteria; assay: Marine bacteria growth assay, positive control (strain not specified); type: cell-based; details: 40 μL of 0.5 M per disc
Procedure: The ability of selected metabolites to inhibit the growth of bacteria was assessed using five strains of marine bacteria involved in marine surface biofilm formation, namely, B. subtilis, B. mojavensis, B. thuringiensis, P. putita and P. pseudoalcaligenes. Bacterial strains were maintained on Zobel marine agar plates. Sterile filter paper discs (4 mm) (GF/F; GE Healthcare, Little Chalfont, UK) were loaded with 40 μL samples of serial dilutions of each tested metabolite, allowed to dry at room temperature and then placed on agar plates (Zobel marine agar, pH = 7.3), which were seeded with a single strain of bacteria. Plates were incubated for 24 h at 25 °C. Marine bacteria growth inhibition was determined by measuring the zone of inhibition in mm around the filter paper disc. As a positive and negative control, standard discs were loaded with 40 μL of 0.5 M penicillin G (2 to 10 mm diameter) or solvent (40 μL methanol), respectively.

SMILES | A. salina exclusion criterion (>10-fold change in EC50 between 24 h and 48 h) [1] | LC50 at 24 h [2] | LC50 at 48 h [2] | EC50 ([3]; 24 h) | IC50 ([3]; 24 h) | EC50 ([3]; 48 h) | IC50 ([3]; 48 h) | EC50 ([3]; 72 h) | IC50 ([3]; 72 h) | EC50 values for settlement inhibition of barnacle cyprids (in words) [3] | LC50 at 24 h [4] | LC50 at 48 h [4] | LC50 at 72 h [4] | toxic effect on cyprids ([3]; in vivo) | C. gracilis exclusion criterion (EC50 compared with bromosphaerol) [5] | EC50 ([5]; Chaetoceros neogracilis) | zone of inhibition (diameter) [6]
Cc1ccc(C2(C)CCC(=CBr)C2C)c(O)c1 (stereo not drawn) [Compound 4, iso-laurenisol] | did not pass this criterion | 21100 nM | 739 nM | 10400 nM | 120 nM | 12400 nM | 180 nM | 5850 nM | 340 nM | sub-micromolar | 3550 nM | 2980 nM | 2800 nM | – | – | – | –
C=C1C[C@H](O)[C@H](Br)C(C)(C)[C@@]12CCC(C)=C(Cl)C2 [Compound 12, elatol] | did not pass this criterion | 6590 nM | 373 nM | 396 nM | 89 nM | 250 nM | 73 nM | 66 nM | 42 nM | sub-micromolar | 327 nM | 194 nM | 61 nM | obvious toxic effect on cyprids | – | – | –
C#CC=CCC1OC(C(Br)CC)CC(OC(C)=O)C(Cl)CC1Cl (stereo not drawn) [Compound 22, laurencienyne] | – | 3070 nM | 9630 nM | 8 nM | 25 nM | 10 nM | 43 nM | 58700 nM | 55 nM | sub-micromolar | 6860 nM | 10100 nM | 71300 nM | – | did not pass this criterion | 2150 nM | –
CC1(C)S[C@@H]2[C@H](NC(=O)Cc3ccccc3)C(=O)N2[C@H]1C(=O)O [penicillin G] | – | – | – | – | – | – | – | – | – | – | – | – | – | – | – | – | 2 to 10 mm
